This assay concerns the target T1, Aurora-A122-403-C290A/C393A (Homo sapiens, UniProt O14965, C290A/C393A).
T1 construct: Human Aurora-A kinase domain 122-403 wild-type or C290A/ C393A mutant; His tag (pET30TEV vector) (N, cleaved yes); made in house; host or cells: E. coli RIL, co-expressed with lambda phosphatase (Aurora-A); tracer by solid phase synthesis
T1 sequence (O14965 122-403 C290A/C393A): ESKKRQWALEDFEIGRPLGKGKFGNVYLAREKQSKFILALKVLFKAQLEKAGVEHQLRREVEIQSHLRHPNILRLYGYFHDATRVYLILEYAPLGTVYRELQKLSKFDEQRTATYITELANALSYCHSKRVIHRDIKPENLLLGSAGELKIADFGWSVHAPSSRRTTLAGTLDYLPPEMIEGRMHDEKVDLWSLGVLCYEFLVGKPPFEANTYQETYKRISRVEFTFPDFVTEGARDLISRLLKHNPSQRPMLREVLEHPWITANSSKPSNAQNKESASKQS
Kind of assay: FA direct binding assay (Aurora-A titrated into FAM-Ahx-labelled peptide). Details: ΔG: unit not given here. The settings on record: for ΔG: Table S6, from direct FA titration, n = 6. As for the experimental part:
Fluorescence anisotropy (FA) assays – General information.
All assays were performed using 384-well plates(Greiner Bio-one, UK). […]
produced as described previously.11 All samples were prepared in 25 mM Tris,150 mM NaCl, 5 mM MgCl2, […]
(PerkinElmer; Waltham, MA, USA).The parameters were set as follows: Excitation wavelength = 480 nm […]
Measured data were processed and analysed as previously described.12 Specifically, the perpendicular intensity (P) and parallel intensity (S) were subtracted by the control values and used for calculations of intensity and anisotropy using the following Equations 1, 2, 3, 4, and 5:
I= (2PG) + S Eq. (SI − 5)
r = (S − PG) Eq. (SI − 6)
L = r − r௠௜௡ Eq. (SI − 7)
y = (k + x + [FL]) − ඥ(k + x + [FL]2 − 4 ∗ x ∗ [FL]) Eq. (SI − 8)
y = r + r௠௜௡ − r௠௔௫ Eq. (SI − 9)
Where I = total intensity; P = perpendicular intensity; S = parallel intensity; G = instrument factor; r = anisotropy; Lb = ligand bound fraction; λ = change in intensity between bound and unbound states which […]
FA direct binding assays. […]
starting from 700 μM, diluted over 24 points in a 1/2 regime using the FAM-Ahx-labeled peptides at a final fixed concentration of 50 nM per well.

[1] abbreviates: direct FA titration of Aurora-A122-403-C290A/C393A into 50 nM FAM-Ahx-labelled peptide, 25 mM Tris, 150 mM NaCl, 5 mM MgCl2, pH 7.5, 25 °C, mean ± SD, n = 3, read-out: Kd.
Setting [2] is: Table S6, direct FA titration, 50 nM fluorescein-labelled peptide, Tris buffer pH 7.5, mean ± SD, n = 6, read-out: Kd.
Where [3] appears, read: 50 nM fluorescein-labelled peptide, mean ± SD.

Read-outs that look alike come from different tables or passages of the source. *1 amine or outer side, *2 acyl side, *3 side chain or, on linkers, in order; H or OH if unused. Where a SMILES comes first, the peptide text is derived from it. Bridges are numbered along the chain shown (N, C = ends). [ ]: non-standard residue; d: D form. The star is where a group is joined. 5FAM = O=C1OC2(c3ccc(O)cc3Oc3cc(O)ccc32)c2ccc(C(=O)*)cc21; Biphenyl(4,4'-CH2)2 = c1cc(-c2ccc(C[*:2])cc2)ccc1C[*:1]; Pro(trans-4-F) = O=C(O)[C@@H]1C[C@@H](F)CN1; Phe(4-Br) = N[C@@H](Cc1ccc(Br)cc1)C(=O)O; Phe(4-I) = N[C@@H](Cc1ccc(I)cc1)C(=O)O; Ahx = NCCCCCC(=O)O

The term Kd denotes the concentration at which binding is half-saturated. On to `CC(C)C[C@H](NC(=O)[C@H](Cc1ccc(O)cc1)NC(=O)[C@H](CC(=O)O)NC(=O)[C@@H](NC(=O)[C@H](CCC(=O)O)NC(=O)[C@H](C)NC(=O)CNC(=O)[C@@H](NC(=O)CNC(=O)[C@H](CC(C)C)NC(=O)[C@@H](NC(=O)[C@H](CCC(=O)O)NC(=O)[C@H](C)NC(=O)[C@@H]1CCCN1C(=O)[C@H](CC(=O)O)NC(=O)[C@H](CCCNC(=N)N)NC(=O)[C@H](Cc1ccccc1)NC(=O)[C@H](CO)NC(=O)[C@H](CCC(=O)O)NC(=O)[C@H](CCC(=O)O)NC(=O)CCCCCNC(=O)c1ccc2c(c1)C(=O)OC21c2ccc(O)cc2Oc2cc(O)ccc21)C(C)C)[C@@H](C)O)C(C)C)C(=O)N[C@@H](CCC(=O)O)C(=O)N[C@@H](CCC(N)=O)C(=O)N[C@@H](Cc1ccccc1)C(=O)NCC(=O)N[C@H](C(=O)N[C@@H](CO)C(=O)N[C@@H](CO)C(=O)N[C@@H](Cc1ccccc1)C(=O)N[C@@H](CCCCN)C(=O)N[C@@H](CCC(=O)O)C(=O)N[C@@H](CO)C(N)=O)[C@@H](C)O` [FAM-Ahx-TACC3 522-552] ({5FAM-Ahx}-EESFRDPAEVLGTGAEVDYLEQFGTSSFKES-NH2), for which, under setting [1], the dissociation constant (Kd) came out at 5200 ± 500 nM.

On to `CC(C)C[C@H](NC(=O)[C@@H](NC(=O)[C@H](CCC(=O)O)NC(=O)[C@H](C)NC(=O)[C@@H]1CCCN1C(=O)[C@H](CC(=O)O)NC(=O)[C@H](CCCNC(=N)N)NC(=O)[C@H](Cc1ccccc1)NC(=O)[C@H](CO)NC(=O)[C@H](CCC(=O)O)NC(=O)[C@H](CCC(=O)O)NC(=O)CCCCCNC(=O)c1ccc2c(c1)C(=O)OC21c2ccc(O)cc2Oc2cc(O)ccc21)C(C)C)C(=O)NCC(=O)N[C@H](C(=O)NCC(=O)N[C@@H](C)C(N)=O)[C@@H](C)O` [FAM-Ahx-TACC3 522-536], for which the Kd (SD) turned out to be 10500 ± 1130 nM.

With `CC(C)C[C@H](NC(=O)[C@@H](NC(=O)[C@H](CCC(=O)O)NC(=O)[C@H](C)NC(=O)[C@@H]1C[C@@H](F)CN1C(=O)[C@H](CC(=O)O)NC(=O)[C@@H]1CSCc2ccc(cc2)-c2ccc(cc2)CSC[C@H](NC(=O)[C@H](CCC(=O)O)NC(=O)[C@H](CC(C)C)NC(=O)CCCCCNC(=O)c2ccc3c(c2)C(=O)OC32c3ccc(O)cc3Oc3cc(O)ccc32)C(=O)N[C@@H](CCCCN)C(=O)N[C@@H](CCC(=O)O)C(=O)N[C@@H](CCC(=O)O)C(=O)N[C@@H](CO)C(=O)N[C@@H](Cc2ccc(Br)cc2)C(=O)N1)C(C)C)C(N)=O` [FAM-Ahx-TACC3 518-532-L/R-Bph-BrF/fP] ({5FAM-Ahx}-LECKEES[Phe(4-Br)]CD[Pro(trans-4-F)]AEVL-NH2; linker 3-9 via Biphenyl(4,4'-CH2)2), the Kd under setting [2] amounted to 1480 ± 160 nM. Under setting [3], the ΔG was -33.3 ± 0.3.

For the molecule `CC(C)C[C@H](NC(=O)[C@@H](NC(=O)[C@@H]1CSCc2ccc(cc2)-c2ccc(cc2)CSC[C@H](NC(=O)[C@H](CCC(=O)O)NC(=O)[C@H](CCC(=O)O)NC(=O)[C@H](CCCCN)NC(=O)[C@H](CC(C)C)NC(=O)[C@H](CCC(=O)O)NC(=O)[C@H](CC(C)C)NC(=O)CCCCCNC(=O)c2ccc3c(c2)C(=O)OC32c3ccc(O)cc3Oc3cc(O)ccc32)C(=O)N[C@@H](Cc2ccc(Br)cc2)C(=O)N[C@@H](CCCNC(=N)N)C(=O)N[C@@H](CC(=O)O)C(=O)N2C[C@H](F)C[C@H]2C(=O)N[C@@H](C)C(=O)N1)C(C)C)C(N)=O` [FAM-Ahx-TACC3 518-532-S/E-Bph-BrF/fP] ({5FAM-Ahx}-LELKEEC[Phe(4-Br)]RD[Pro(trans-4-F)]ACVL-NH2; linker 7-13 via Biphenyl(4,4'-CH2)2), the Kd under setting [2] was determined as 620 ± 150 nM. In addition, the ΔG under setting [3] is recorded as -35.5 ± 0.6.

Take `CC(C)C[C@H](NC(=O)[C@H](Cc1ccc(O)cc1)NC(=O)[C@H](CC(=O)O)NC(=O)[C@@H](NC(=O)[C@H](CCC(=O)O)NC(=O)[C@H](C)NC(=O)CNC(=O)[C@@H](NC(=O)CNC(=O)[C@H](CC(C)C)NC(=O)[C@@H](NC(=O)[C@H](CCC(=O)O)NC(=O)[C@H](C)NC(=O)[C@@H]1CCCN1C(=O)[C@H](CC(=O)O)NC(=O)[C@H](CCCNC(=N)N)NC(=O)[C@H](Cc1ccccc1)NC(=O)[C@H](CO)NC(=O)[C@H](CCC(=O)O)NC(=O)[C@H](CCC(=O)O)NC(=O)CCCCCNC(=O)c1ccc2c(c1)C(=O)OC21c2ccc(O)cc2Oc2cc(O)ccc21)C(C)C)[C@@H](C)O)C(C)C)C(=O)N[C@@H](CCC(=O)O)C(N)=O` [FAM-Ahx-TACC3 522-542] ({5FAM-Ahx}-EESFRDPAEVLGTGAEVDYLE-NH2): the Kd under setting [1] came to 4500 ± 200 nM.

As for `CC(C)C[C@H](NC(=O)[C@@H](NC(=O)[C@H](CCC(=O)O)NC(=O)[C@H](C)NC(=O)[C@@H]1CCCN1C(=O)[C@H](CC(=O)O)NC(=O)[C@H](CCCNC(=N)N)NC(=O)[C@H](Cc1ccccc1)NC(=O)[C@H](CO)NC(=O)[C@H](CCC(=O)O)NC(=O)[C@H](CCC(=O)O)NC(=O)CCCCCNC(=O)c1ccc2c(c1)C(=O)OC21c2ccc(O)cc2Oc2cc(O)ccc21)C(C)C)C(N)=O` [FAM-Ahx-TACC3 522-532] ({5FAM-Ahx}-EESFRDPAEVL-NH2), the Kd under setting [1] is 7100 ± 800 nM.

Regarding `CC(C)C[C@H](NC(=O)[C@@H](NC(=O)[C@@H]1CSCc2ccc(cc2)-c2ccc(cc2)CSC[C@H](NC(=O)[C@H](CCC(=O)O)NC(=O)[C@H](CCC(=O)O)NC(=O)[C@H](CCCCN)NC(=O)[C@H](CC(C)C)NC(=O)[C@H](CCC(=O)O)NC(=O)[C@H](CC(C)C)NC(=O)CCCCCNC(=O)c2ccc3c(c2)C(=O)OC32c3ccc(O)cc3Oc3cc(O)ccc32)C(=O)N[C@@H](Cc2ccc(I)cc2)C(=O)N[C@@H](CCCNC(=N)N)C(=O)N[C@@H](CC(=O)O)C(=O)N2C[C@H](F)C[C@H]2C(=O)N[C@@H](C)C(=O)N1)C(C)C)C(N)=O` [FAM-Ahx-TACC3 518-532-S/E-Bph-IF/fP] ({5FAM-Ahx}-LELKEEC[Phe(4-I)]RD[Pro(trans-4-F)]ACVL-NH2; linker 7-13 via Biphenyl(4,4'-CH2)2), the Kd worked out at 900 ± 200 nM under setting [2] and 800 ± 200 nM under setting [1]. Moreover, under setting [3], the ΔG is -34.6 ± 0.6.

(Values after PMC11604048, “Constrained TACC3 peptidomimetics for a non-canonical protein–protein interface elucidate allosteric communication in Aurora-A kinase” (Chemical Science, 2024).)
